Results taken from patent US20230272357A1, “METHODS OF GENOME EDITING INCLUDING CONTROLLED OPENING OF CHROMATIN” (Wisconsin Alumni Research Foundation, priority 2021, published 2023).
Entries after “also recorded” stand apart in the source; their conditions may differ.

System: edited iPSC clones
Assay: G-banded karyotyping of edited iPSC clones
Type: cell-based, human
Conditions: 6.25 ng/mL TSA
Experimental: Karyotyping: Cells cultured for at least 5 passages were grown to 60-80% confluence and shipped for karyotype analysis to WiCell Research Institute, Madison, Wis. G-banded karyotyping was performed using standard cytogenetic protocols. Metaphase preparations were digitally captured with Applied Spectral Imaging software and hardware. For each cell line, 20 GTL-banded metaphases were counted, of which a minimum of 5 were analyzed and karyotyped. Results were reported in accordance with guidelines established by the International System for Cytogenetic Nomenclature 2016.

**Q.** For `CC(/C=C/C(=O)NO)=C\[C@@H](C)C(=O)c1ccc(N(C)C)cc1` [TSA, Trichostatin A], which “Karyotype abnormality in one clone (#5)” value (FIG. 4E, known recurrent duplication in pluripotent stem cell cultures) is on record?
**A.** Its value is “interstitial duplication in the long (q) arm of chromosome 20 in five of the twenty cells examined”.

**Q.** What about the “Karyotype of edited iPSC clones” value (five clones, HIST1H2BJ-GFP locus) of the same compound?
**A.** Its value is “no genomic abnormalities in four of the five clones; also recorded: normal karyotype”.
